Test results: patent US9149038B2, “4-amino-6-(heterocyclic)picolinates and 6-amino-2-(heterocyclic)pyrimidine-4-carboxylates and their use as herbicides” (Dow AgroSciences LLC, priority 2013, dated 2015)
Where two headings read alike, the source gives them in different places.

Legend:
[1] = tested on: Key Broadleaf Weed and Crop Species; assay: Post-Emergent Test II: postemergent herbicidal activity, visual rating after 14 d (Table 7); format: in vivo; settings: post-emergence, 336 h; for pest or weed control at 35 g/ha: 35 g ai/ha; for pest or weed control at 70 g/ha: 70 g ai/ha; for pest or weed control at 140 g/ha: 140 g ai/ha
Outline: (§1)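 Greenhouse-grown plants at the first or second true leaf stage (7-21 d, ~15 h photoperiod, 23-29° C day) were sprayed with compound in acetone/DMSO-based aqueous spray containing crop oil concentrate and Triton X-155 at 187 L/ha. Injury versus untreated plants was rated visually after 14 d on a 0-100 scale.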

[2] = tested on: Key Grass and Sedge Weeds as well as Grass Crops; assay: Post-Emergent Test II: postemergent herbicidal activity, visual rating after 14 d (Table 8); format: in vivo; settings: post-emergence, 336 h; for pest or weed control at 35 g/ha: 35 g ai/ha; for pest or weed control at 70 g/ha: 70 g ai/ha; for pest or weed control at 140 g/ha: 140 g ai/ha
Outline: as §1

[3] = lambsquarters (Chenopodium album), read-out: Visual Growth Reduction (%) 14 Days After Application CHEAL
[4] = oilseed rape, canola (Brassica napus), read-out: Visual Growth Reduction (%) 14 Days After Application BRSNN
[5] = redroot pigweed (Amaranthus retroflexus), read-out: Visual Growth Reduction (%) 14 Days After Application AMARE
[6] = sunflower (Helianthus annuus), read-out: Visual Growth Reduction (%) 14 Days After Application HELAN
[7] = velvetleaf (Abutilon theophrasti), read-out: Visual Growth Reduction (%) 14 Days After Application ABUTH
[8] = wild poinsettia (Euphorbia heterophylla), read-out: Visual Growth Reduction (%) 14 Days After Application EPHHL
[9] = barnyardgrass (Echinochloa crus-galli), read-out: Visual Growth Reduction (%) 14 Days After Application ECHCG
[10] = giant foxtail (Setaria faberi), read-out: Visual Growth Reduction (%) 14 Days After Application SETFA
[11] = maize, corn (Zea mays), read-out: Visual Growth Reduction (%) 14 Days After Application ZEAMX
[12] = rice (Oryza sativa), read-out: Visual Growth Reduction (%) 14 Days After Application ORYSA
[13] = wheat, spring (Triticum aestivum), read-out: Visual Growth Reduction (%) 14 Days After Application TRZAS
[14] = yellow nutsedge (Cyperus esculentus), read-out: Visual Growth Reduction (%) 14 Days After Application CYPES

Row | SMILES | pest or weed control at 35 g/ha [1, 3] [%] | pest or weed control at 70 g/ha [1, 3] [%] | pest or weed control at 140 g/ha [1, 3] [%] | pest or weed control at 35 g/ha [1, 4] [%] | pest or weed control at 70 g/ha [1, 4] [%] | pest or weed control at 140 g/ha [1, 4] [%] | pest or weed control at 35 g/ha [1, 5] [%] | pest or weed control at 70 g/ha [1, 5] [%] | pest or weed control at 140 g/ha [1, 5] [%] | pest or weed control at 35 g/ha [1, 6] [%] | pest or weed control at 70 g/ha [1, 6] [%] | pest or weed control at 140 g/ha [1, 6] [%] | pest or weed control at 35 g/ha [1, 7] [%] | pest or weed control at 70 g/ha [1, 7] [%] | pest or weed control at 140 g/ha [1, 7] [%] | pest or weed control at 35 g/ha [1, 8] [%] | pest or weed control at 70 g/ha [1, 8] [%] | pest or weed control at 140 g/ha [1, 8] [%] | pest or weed control at 35 g/ha [2, 9] [%] | pest or weed control at 70 g/ha [2, 9] [%] | also measured
1 | COC(=O)c1nc(-c2c(F)cc3c(c2F)OCO3)cc(N)c1Cl [Compound 48] | 95 to 100 | 95 to 100 | 95 to 100 | 95 to 100 | 95 to 100 | 95 to 100 | 85 to 94 | 95 to 100 | 95 to 100 | 0 to 29 | 45 to 59 | 60 to 74 | 85 to 94 | 95 to 100 | 95 to 100 | 95 to 100 | 95 to 100 | 95 to 100 | 75 to 84 | 75 to 84 | pest or weed control at 140 g/ha [2, 9]: 85 to 94%; pest or weed control at 35 g/ha [2, 10]: 0 to 29%; pest or weed control at 70 g/ha [2, 10]: 60 to 74%; pest or weed control at 140 g/ha [2, 10]: 75 to 84%; pest or weed control at 35 g/ha [2, 11]: 30 to 44%; pest or weed control at 70 g/ha [2, 11]: 60 to 74%; pest or weed control at 140 g/ha [2, 11]: 75 to 84%; pest or weed control at 35 g/ha [2, 12]: 30 to 44%; pest or weed control at 70 g/ha [2, 12]: 45 to 59%; pest or weed control at 140 g/ha [2, 12]: 60 to 74%; pest or weed control at 35 g/ha [2, 13]: 0 to 29%; pest or weed control at 70 g/ha [2, 13]: 30 to 44%; pest or weed control at 140 g/ha [2, 13]: 60 to 74%; pest or weed control at 35 g/ha [2, 14]: 0 to 29%; pest or weed control at 70 g/ha [2, 14]: 0 to 29%; pest or weed control at 140 g/ha [2, 14]: 30 to 44%
2 | COC(=O)c1nc(-c2ccc3c(c2)OC(F)(F)O3)c(C)c(N)c1Cl [Compound 49] | 0 to 29 | 30 to 44 | 85 to 94 | 0 to 29 | 0 to 29 | 0 to 29 | 0 to 29 | 0 to 29 | 0 to 29 | 85 to 94 | 85 to 94 | 95 to 100 | 0 to 29 | 0 to 29 | 30 to 44 | 0 to 29 | 0 to 29 | 0 to 29 | 0 to 29 | 0 to 29 | pest or weed control at 140 g/ha [2, 9]: 0 to 29%; pest or weed control at 35 g/ha [2, 10]: 0 to 29%; pest or weed control at 70 g/ha [2, 10]: 0 to 29%; pest or weed control at 140 g/ha [2, 10]: 0 to 29%; pest or weed control at 35 g/ha [2, 11]: 30 to 44%; pest or weed control at 70 g/ha [2, 11]: 60 to 74%; pest or weed control at 140 g/ha [2, 11]: 60 to 74%; pest or weed control at 35 g/ha [2, 12]: 0 to 29%; pest or weed control at 70 g/ha [2, 12]: 0 to 29%; pest or weed control at 140 g/ha [2, 12]: 0 to 29%; pest or weed control at 35 g/ha [2, 13]: 0 to 29%; pest or weed control at 70 g/ha [2, 13]: 30 to 44%; pest or weed control at 140 g/ha [2, 13]: 30 to 44%; pest or weed control at 35 g/ha [2, 14]: 0 to 29%; pest or weed control at 70 g/ha [2, 14]: 0 to 29%; pest or weed control at 140 g/ha [2, 14]: 0 to 29%
3 | Cc1c(-c2ccc3c(c2)OC(F)(F)O3)nc(C(=O)O)c(Cl)c1N [Compound 52] | 0 to 29 | 0 to 29 | 0 to 29 | 0 to 29 | 0 to 29 | 0 to 29 | 0 to 29 | 0 to 29 | 0 to 29 | 85 to 94 | 95 to 100 | 95 to 100 | 0 to 29 | 0 to 29 | 0 to 29 | 0 to 29 | 0 to 29 | 0 to 29 | 45 to 59 | 60 to 74 | pest or weed control at 140 g/ha [2, 9]: 75 to 84%; pest or weed control at 35 g/ha [2, 10]: 0 to 29%; pest or weed control at 70 g/ha [2, 10]: 0 to 29%; pest or weed control at 140 g/ha [2, 10]: 45 to 59%; pest or weed control at 35 g/ha [2, 11]: 60 to 74%; pest or weed control at 70 g/ha [2, 11]: 60 to 74%; pest or weed control at 140 g/ha [2, 11]: 60 to 74%; pest or weed control at 35 g/ha [2, 12]: 0 to 29%; pest or weed control at 70 g/ha [2, 12]: 0 to 29%; pest or weed control at 140 g/ha [2, 12]: 0 to 29%; pest or weed control at 35 g/ha [2, 13]: 0 to 29%; pest or weed control at 70 g/ha [2, 13]: 30 to 44%; pest or weed control at 140 g/ha [2, 13]: 30 to 44%; pest or weed control at 35 g/ha [2, 14]: 0 to 29%; pest or weed control at 70 g/ha [2, 14]: 0 to 29%; pest or weed control at 140 g/ha [2, 14]: 0 to 29%
